Measurements as given in patent publication EP0490549B1, “Stabilisation of pharmaceutical compositions comprising calcitonin” (CIBA-GEIGY AG, priority 1990, dated 1995).
Entries after “also recorded” stand apart in the source; their conditions may differ. Where two headings read alike, the source gives them in different places.

Legend:
[1] = Stability of aqueous hCT solutions against fibrillation or precipitation (solution remains clear on storage); conditions: for solution is stable for: Example 1 repeated (5 mg/ml hCT) with acetic acid replaced by the named acid; for ability of an acid to produce a stable solution of hCT (solution remains clear): storing for 24 hours at 25°C
Procedure: The ability of an acid to produce a stable solution can be readily determined by making up a solution and storing it for 24 hours at 25°C.
Example 1 is repeated except that the solutions also contain 0.5% hydroxypropylmethylcellulose.

[2] = as above; format: physicochemical; conditions: 5 mg/ml hCT; acetic acid 0.0001%, 0.001%, 0.01%, 0.1% and 1.0%; after 8 months
[3] = Extrapolated time of fibrillation (ln/ln plot of fibrillation time against hCT concentration); conditions: at 4°C; solutions with 5-9 mg/ml hCT in 0.001% acetic acid; from measurements up to 100 mg/ml hCT using the ln/ln plot
[4] = additive mixed with the hCT solution after preparation

Row | solution is stable for [1] | ability of an acid to produce a stable solution of hCT (solution remains clear) [1] | Compound | other results
1 |  | do not form stable solutions | N[C@@H](CC(=O)O)C(=O)O [aspartic acid] | 
2 |  | do not form stable solutions | O=C(O)[C@H](O)[C@@H](O)[C@H](O)[C@H](O)CO [gluconic acid] | 
3 |  | do not form stable solutions | O=C(O)/C=C\C(=O)O [maleic acid] | 
4 | over 4 days | form stable solutions | O=C(O)CC(=O)O [malonic acid] | 
5 | over 4 days |  | O=C(O)CCC(=O)O [succinic acid] | 
6 |  | do not form stable solutions | sulphuric acid | 

The remaining lines, values behind:

Row | Compound | solution is stable for [1] | ability of an acid to produce a stable solution of hCT (solution remains clear) [1] | other results
7 | O=C(O)C(O)C(O)C(=O)O (racemic) [DL-tartaric acid] | over 4 days | form stable solutions | 
8 | N[C@H](CCC(=O)O)C(=O)O [D-glutamic acid] |  | do not form stable solutions | 
9 | N[C@@H](CCC(=O)O)C(=O)O [L-glutamic acid] | over 4 days |  | 
10 | O=C(O)C(O)C(O)C(=O)O [L-α-tartaric acid] | over 4 days | form stable solutions | 
11 | O=C(O)CCCCC(=O)O [adipic acid] | over 4 days | form stable solutions | 
12 | O=C1O[C@H]([C@@H](O)CO)C(O)=C1O [ascorbic acid] | over 4 days | form stable solutions | 
13 | CC(C)(C)CC(C)(C)c1ccc(OCCOCC[N+](C)(C)Cc2ccccc2)cc1 [benzethonium chloride] |  |  | effect of additive on the stability of the hCT solution [1, 4]: do not diminish the stability; also recorded: improve the stability
14 | [H]/N=C(\N/C(=N/[H])NCCCCCCNC(=N)NC(=N)Nc1ccc(Cl)cc1)Nc1ccc(Cl)cc1 [chlorhexidine diacetate] |  |  | effect of additive on the stability of the hCT solution [1]: do not diminish the stability
15 | O=C(O)CC(O)(CC(=O)O)C(=O)O [citric acid] | over 4 days | form stable solutions | 
16 | CCO [ethanol] |  |  | effect of additive on the stability of the hCT solution [1]: do not diminish the stability
17 | O=C(O)CN(CCN(CC(=O)O)CC(=O)O)CC(=O)O [ethylene - diamine tetraacetic acid] |  | form stable solutions | 
18 | O=CO [formic acid] | over 4 days | form stable solutions | 
19 | O=C(O)CCCC(=O)O [glutaric acid] | over 4 days | form stable solutions | 
20 | CC[C@H](C)[C@H](NC(=O)[C@H](C)NC(=O)[C@@H](NC(=O)[C@H](CCC(N)=O)NC(=O)[C@@H]1CCCN1C(=O)[C@H](Cc1ccccc1)NC(=O)[C@@H](NC(=O)[C@H](Cc1c[nH]cn1)NC(=O)[C@H](Cc1ccccc1)NC(=O)[C@H](CCCCN)NC(=O)[C@H](CC(N)=O)NC(=O)[C@H](Cc1ccccc1)NC(=O)[C@H](CC(=O)O)NC(=O)[C@H](CCC(N)=O)NC(=O)[C@@H](NC(=O)[C@H](Cc1ccc(O)cc1)NC(=O)[C@@H](NC(=O)CNC(=O)[C@H](CC(C)C)NC(=O)[C@H](CCSC)NC(=O)[C@@H]1CSSC[C@H](N)C(=O)NCC(=O)N[C@@H](CC(N)=O)C(=O)N[C@@H](CC(C)C)C(=O)N[C@@H](CO)C(=O)N[C@@H]([C@@H](C)O)C(=O)N1)[C@@H](C)O)[C@@H](C)O)[C@@H](C)O)[C@@H](C)O)C(=O)NCC(=O)N[C@H](C(=O)NCC(=O)N[C@@H](C)C(=O)N1CCC[C@H]1C(N)=O)C(C)C [hCT] |  |  | stability of solution [2]: stable and perfectly clear; stability predicted [3]: more than 5 years
21 | Cl [hydrochloric acid] | over 4 days | form stable solutions | 
22 | OC[C@H]1O[C@@H](O[C@H]2[C@H](O)[C@@H](O)C(O)O[C@@H]2CO)[C@H](O)[C@@H](O)[C@H]1O (stereo partly shown) [lactose] |  |  | effect of additive on the stability of the hCT solution [1]: do not diminish the stability
23 | OC[C@@H](O)[C@@H](O)[C@H](O)[C@H](O)CO [mannitol] |  |  | effect of additive on the stability of the hCT solution [1]: do not diminish the stability
24 | Oc1ccccc1 [phenol] |  | form stable solutions | 
25 | OC[C@H]1O[C@@](CO)(O[C@H]2O[C@H](CO)[C@@H](O)[C@H](O)[C@H]2O)[C@@H](O)[C@@H]1O [sucrose] |  |  | effect of additive on the stability of the hCT solution [1]: do not diminish the stability
26 | OC[C@H]1O[C@H](O[C@H]2O[C@H](CO)[C@@H](O)[C@H](O)[C@H]2O)[C@H](O)[C@@H](O)[C@@H]1O [trehalose] |  |  | effect of additive on the stability of the hCT solution [1]: do not diminish the stability
27 | benzalkonium chloride |  |  | effect of additive on the stability of the hCT solution [1, 4]: do not diminish the stability
